Results taken from PMC10363981, “Optimizing the enzymatic release of MMAE from isoDGR-based small molecule drug conjugate by incorporation of a GPLG-PABC enzymatically cleavable linker” (Frontiers in Pharmacology, 2023).

How the values were obtained:
[1] = Enzymatic cleavage assay with lysosomal homogenate; type: in vitro ADME; conditions: rat liver lysosomal homogenate, conjugate:lysosomal protein 1:10 (w/w), 0.2 M NaOAc pH 5.05, 37 °C, UPLC-HRMS
Description: The enzymatically cleavage test was performed by incubating the conjugate 2 with rat liver lysosomal homogenate and analyzed by LC–MS. In particular, the conjugate 2 (2.35 μg/μL in DMSO, 5 μL) was diluted with 0.2 M NaOAc solution (pH 5.05, 495 μL) to 0.024 μg/μL. The lysosomal homogenate was prepared from rat liver ([Gomena et al., 2023]), and contained proteins in 71.76 μg/μL concentration. 8.6 μL of this lysosomal homogenate was diluted with 66.4 μL 0.2 M NaOAc solution (pH 5.05), to have a protein concentration of 8.27 μg/μL. To start the assay, 15 μL lysosome homogenate (8.27 μg/μL) was added to 500 μL conjugate solution (0.025 μg/μL), to have a conjugate: lysosomal protein = 1:10 (w/w) ratio. Furthermore, a control reaction mixture was prepared, containing the conjugate (2.35 μg/μL in DMSO, 5 μL) and 510 μL of 0.2 M NaOAc solution (pH 5.05). The samples were stirred at 300 rpm, 37°C and 50 µL aliquots were taken out at 0 min, 15 min, 30 min, 1 h, 2 h, 6 h, 24 h, and 72 h. The enzymatic activity was quenched by adding 5 μL formic acid (FA) to the samples. After this procedure, samples were frozen immediately at −25°C. Control samples were collected at 0 min, 1 h, 6 h, 24 h and 72 h. The composition of the samples was determined by HPLC-MS. […] LC-MS data were analyzed by XcaliburTM software (Thermo Fisher Scientific).

[2] = system: SK-OV-3 human ovarian cancer cells; assay: In vitro antiproliferative activity, "kiss-and-run" washout experiment (30 min + washout + up to 72 h); type: cell-based
Description: (§1) U87MG human malignant glioma, SK-MEL-28 human melanoma, SK-OV-3 human ovarian cancer, and A549 human lung cancer cell lines were purchased from ATCC. The cells were cultured in Dulbecco’s Modified Eagle’s Medium (DMEM; Biosera, Nuaille, France), supplemented with 10% heat-inactivated Fetal Bovine Serum (FBS; Biosera), and with 1% Penicillin/Streptomycin (Biosera). Cells were cultured in sterile T75 flasks with ventilation cap (Sarstedt, Nümbrecht, Germany) at 37 °C in a humidified atmosphere with 5% CO2 in ESCO CelCulture Incubator (ESCO, Friedberg, Germany). Manipulations with the cells were performed in biosafety cabinet (laminar) ESCO Sentinel Gold class II model AC2-4E8 (ESCO).
(§2) After standard trypsinization and harvesting cells by trypsin (Biosera), ethylenediaminetetraacetic acid (EDTA; Biosera) and PBS solution, 6×10^3 cells per well were seeded in serum containing (10%) growth medium to 96-well plates with flat bottom (Eppendorf, Hamburg, Germany), in a 100 μL volume per well, and incubated at 37°C.
(§3) In the wash out experiment, cells were incubated with the compounds (5% serum final) for 30 min, then they were washed out, and additionally incubated in growth medium (5% serum final) up to 72 h. The control wells were treated only with serum free medium (5% serum final).
(§4) For the evaluation of the in vitro antiproliferative activity of compounds, the cell viability was determined by MTT assay (3-(4,5-dimethylthiazol-2-yl)-2,5-diphenyl-tetrazolium bromide) obtained from Duchefa Biochemie (Haarlem, Netherlands).
(§5) 22 µL of MTT solution (5 mg/mL in PBS, 0.5 mg/mL final) was added to each well and after 2 h incubation at 37°C, the supernatant was removed. […] Average background absorbance (DMSO-Ethanol) was subtracted from absorbance values of control and treated wells, and cell viability was determined relative to untreated (control) wells where cell viability was arbitrarily set to 100%. […] The experiments were done in triplicate and each experiment was repeated three times.
(§6) Recently, a new protocol for evaluating the antiproliferative activity and the targeting ability of integrin-ligand based conjugates was developed by the group of Prof. […] In this procedure, which we named “kiss-and-run” experiment, after very short initial contact times (15–30 min) of the toxin with the cells in vitro, the solution is drained, and cells are resuspended in the culture medium for a 72 h incubation. This protocol is aimed at simulating the rapid clearance of the drugs that occurs in vivo in the extracellular tumor environment, thus highlighting the ability of the conjugate to bind the integrin receptor on the cell surface.

[3] = system: U87MG human malignant glioma cells; assay: as above; type: cell-based
Description: as §1, §2, §3, §4, §5, §6

[4] = system: SK-MEL-28 human melanoma cells; assay: as above; type: cell-based
Description: as §1, §2, §3, §4, §5, §6

[5] = system: A549 human lung cancer cells; assay: as above; type: cell-based
Description: as §1, §2, §3, §4, §5, §6

[6] = system: SK-OV-3 human ovarian cancer cells; assay: In vitro antiproliferative activity, MTT, 72 h continuous treatment (no-washout); type: cell-based
Description: as §1, §2, §3, §4, §5

[7] = system: A549 human lung cancer cells; assay: as above; type: cell-based
Description: as §1, §2, §3, §4, §5

[8] = MTT, 30 min treatment, washout, further incubation up to 72 h, 5% serum final
[9] = ratio of IC50 of 2 vs MMAE, 30 min + washout + up to 72 h
[10] = relative potency = ratio of IC50 of 2 vs MMAE, 72 h no washout

With CC[C@H](C)[C@@H]([C@@H](CC(=O)N1CCC[C@H]1[C@H](OC)[C@@H](C)C(=O)N[C@H](C)[C@@H](O)c1ccccc1)OC)N(C)C(=O)[C@@H](NC(=O)[C@H](C(C)C)N(C)C(=O)OCc1ccc(NC(=O)CNC(=O)[C@H](CC(C)C)NC(=O)[C@@H]2CCCN2C(=O)CNC(=O)CCc2cn(CCOCCOCCOCCOCC(=O)NCc3ccc(CN4C(=O)[C@H]5CC(=O)N[C@H](C(=O)O)CC(=O)NCC(=O)N[C@@H](CCCNC(=N)N)C(=O)NC[C@H]4C(=O)N5)cc3)nn2)cc1)C(C)C [compound 2, cyclo[DKP-isoDGR]-PEG4-GPLG-PABC-MMAE] the “cleavage of the conjugate in the presence of lysosomal enzymes” value [1] was “rapidly cleaved”, the “incubation time after which released free MMAE is detectable” value [1] was at most 15 min and the IC50 [2, 8] was 0.198 ± 0.0137 µM. The “RP [SMDC (2)/MMAE] SK-OV-3” value [2, 9] was 0.97, the IC50 [3, 8] was 0.683 ± 0.0371 µM and the “RP [SMDC (2)/MMAE] U87MG” value [3, 9] was 0.32. The IC50 [4, 8] was 0.938 ± 0.112 µM, the “RP [SMDC (2)/MMAE] SK-MEL-28” value [4, 9] was 0.67 and the IC50 ([5]; MTT, 30 min treatment, washout, further incubation up to 72 h, 5% serum final, αVβ3 low expressing line) was 1.24 ± 0.0852 µM. The “RP [SMDC (2)/MMAE] A549” value [5, 9] was 4.67, the IC50 ([6]; MTT, 72 h continuous treatment, no washout, 5% serum final, triplicate, repeated three times) was 0.0037 ± 0.0003 µM and the “RP [SMDC (2)/MMAE] SK-OV-3” value [6, 10] was 120.52. For the same molecule, the IC50 ([7]; MTT, 72 h continuous treatment, no washout, 5% serum final, αVβ3 low expressing line, triplicate, repeated three times) was 0.0208 ± 0.0018 µM and the “RP [SMDC (2)/MMAE] A549” value [7, 10] was 302.32.
